Test results as given in patent US20260306500A1, “METHOD OF INHIBITING ADENOSINE TRIPHOSPHATE SECRETION, METHOD OF INHIBITING HEPATIC STELLATE CELL ACTIVATION, METHOD OF DEACTIVATING HEPATIC STELLATE CELL, METHOD OF TREATING HEPATIC FIBROSIS, METHOD OF TREATING NON-ALCOHOLIC STEATOHEPATITIS, AND METHOD OF TREATING PSORIASIS” (Kurume University, priority 2023, published 2026).
One block for each compound: values may come before it.

Key:
V-ATPase [1] = biological target: T1, V-ATPase (Bos taurus, UniProt P31404+P31408); experiment: ATP-dependent proton transport by V-ATPase (acridine orange fluorescence quenching); assay type: biochemical, cattle; details: role: substrate; addition of ATP, relative to before addition, N=2
T1 construct: Chromaffin granule membranes were prepared from adrenal glands collected from slaughtered cattle; from tissue; host or cells: cattle adrenal glands, chromaffin granule membranes (sucrose density gradient)
Experimental: (§1) Chromaffin granule membranes were prepared from adrenal glands collected from slaughtered cattle according to Reference A (Nathan Nelson et al., 1988, Chromaffin Granule Proton Pump, Methods in Enzymology, 157, 619-633). Chromaffin granule membranes prepared by sucrose density gradient centrifugation were suspended in 2 ml of SME buffer (20 mM MOPS-tris (pH 7.0), 0.3 M sucrose, 5 mM EDTA, 10 μg/ml leupeptin, and 10 μg/ml pepstatin)+25% glycerol, and the resulting suspension was aliquoted and stored at −80° C. Under these conditions, the ATP transport activity, the V-ATPase activity, and the catecholamine transport activity remain fully active for at least one year.
ATP-dependent proton transport by V-ATPase was measured according to Reference B. Proton transport activity was measured using a spectrofluorometer at excitation wavelength of 492 nm and a fluorescence wavelength 540 nm, wherein fluorescence quenching of acridine orange was used as an index (N=2). The transmembrane potential generated was measured using a spectrofluorometer at an excitation wavelength of 580 nm and a fluorescence wavelength of 630 nm, wherein fluorescence quenching of oxonol-V was used as an index (N=2). The acridine measurement liquid (2 ml) contained 20 mM MOPS-tris (pH 7.0), 0.2 M sucrose, 0.1 M potassium chloride, 5 mM magnesium acetate, 0.2 μg valinomycin, 2 μM acridine orange, and about 20 μg of chromaffin granules. The oxonol-V measurement liquid (2 ml) contained 20 mM MOPS-tris (pH 7.0), 0.3 M sucrose, 5 mM magnesium acetate, 5 μM oxonol-V, and about 20 μg of chromaffin granules.
(§2) Chromaffin granule membrane vesicles were prepared in the same manner as in Example 5, and uptake of radiolabeled ATP into the vesicles was measured. Transport activity of catecholamine (dopamine) and ATP-dependent proton transport by V-ATPase were also measured in the same manner as in Example 5.

V-ATPase [2] = biological target: T1, V-ATPase; experiment: Transmembrane potential generated (oxonol-V fluorescence quenching) in chromaffin granules; assay type: biochemical, cattle; details: role: substrate; addition of ATP, relative to before addition, N=2
Experimental: as §1
ATP-dependent proton transport by V-ATPase was measured according to Reference B. Proton transport activity was measured using a spectrofluorometer at excitation wavelength of 492 nm and a fluorescence wavelength 540 nm, wherein fluorescence quenching of acridine orange was used as an index (N=2). The transmembrane potential generated was measured using a spectrofluorometer at an excitation wavelength of 580 nm and a fluorescence wavelength of 630 nm, wherein fluorescence quenching of oxonol-V was used as an index (N=2). […]

[3] = test system: α-SMA-positive cells (stellate cells) in mouse liver; experiment: TAA-induced activation of HSCs in mice: α-SMA immunostaining of liver sections; assay type: in vivo
From the text: (§3) For immunohistochemical analysis, liver samples were fixed in 4% paraformaldehyde, embedded in paraffin, and then sectioned. The sections were stained with HE or PSR. In addition, the paraffin-embedded sections were subjected to immunostaining using an α-SMA monoclonal antibody (1:500, catalog No. A5228, manufactured by Sigma-Aldrich) and an F4/80 monoclonal antibody (1:200, catalog No. MCA497GA, manufactured by AbD Serotec). The cell specimens were observed using a microscope (BZ-X700 series, manufactured by Keyence) or a confocal laser microscope (FV1000, manufactured by Olympus Corporation). The number of F4/80-positive cells was counted in four high-power fields per section. The α-SMA-positive area and the PSR-positive area were quantified using the image analysis software Fiji-ImageJ (1.54f).
In accordance with Example 15, immunostaining of α-SMA in liver sections and observation by fluorescence microscopy were performed for the normal control group, the TAA group, and the TAA+IMG group, and for a TAA+Clo group, which was treated in the same manner as the TAA+IMG group except that clodronate, instead of imeglimin, was administered at 30 mg/kg by blending it in the drinking water from 1 week after the start of TAA administration.

mouse liver = experiment: Thioacetamide-induced hepatic fibrosis in mice: histology, immunostaining and fibrosis score; assay type: in vivo; details: TAA 50 mg/kg i.p. three times per week
Experimental: Wild-type mice, […] (manufactured by Charles River Japan), were housed on a 12-hour light/dark cycle and fed a standard solid diet (5.4% fat, CRF-1, manufactured by Oriental Yeast Co., Ltd.) ad libitum. Thioacetamide (TAA, manufactured by FUJIFILM Wako Pure Chemical Corporation) was dissolved in physiological saline at 0.9% w/v. Eight-week-old mice were randomly assigned to three groups and continuously treated for 9 weeks according to the following scheme. At Week 9, all mice were euthanized 1 hour after administration of physiological saline or IMG.
Normal control group (N=6): Physiological saline was intraperitoneally administered to mice three times per week. Eight hours after each administration, a vehicle was orally administered to the mice.
TAA group (N=6): TAA (50 mg/kg, intraperitoneal) was administered to mice. Eight hours thereafter, physiological saline was orally administered to the mice. This treatment was performed three times per week for a total of 9 weeks.
TAA+IMG group (N=6): During the first week, physiological saline was orally administered to mice. Thereafter, imeglimin (IMG) at 200 mg/kg was orally administered three times per week for 8 weeks. The administration of IMG was performed 8 hours after intraperitoneal administration of TAA (50 mg/kg).
as §3
A histological score was determined by a blinded investigator using the NAFLD histological scoring system of the Nonalcoholic Steatohepatitis Clinical Research Network. The total NAFLD activity score (NAS) was calculated from the total of the individual scores for steatosis ([…]), lobular inflammation (F4/80), and hepatocyte ballooning. The range of each parameter was 0 to 2 (ballooning) or 3 (the other two scores), where 0 indicates normal and 2 or 3 indicates severe. Staging of fibrosis was based on the NASH fibrosis stages, and a fibrosis stage ranging from 0 to 4 was determined according to Reference H (David E. Kleiner et al., 2005, Design and validation of a histological scoring system for nonalcoholic fatty liver disease, Hepatology, 41, 1313-1321).
All results are expressed as the mean±standard error of the mean (S.E.M.). Statistical analyses were performed using GraphPad Prism 7.0 (GraphPad Software). Significance upon comparison between two groups was evaluated by an unpaired two-tailed Student's t-test. […]. Statistical significance among three or more groups was determined by two-way analysis of variance (ANOVA) with Tukey's or Dunnett's post hoc test. Coloc2 was used to perform image analysis, automatic thresholding, and pixel intensity correlation for statistical processing. Statistical significance was assumed when the P value was <0.05.

mouse auricle [4] = experiment: Imiquimod-induced psoriasis relapse model (Example 20); assay type: in vivo; details: 5% imiquimod cream resumed on Day 23, vs first induction
Experimental: To the left auricle of each mouse, 62.5 mg of 5% imiquimod cream (Beselna Cream 5%) was applied once daily a total of seven times (Days 1 to 7) in accordance with Example 19 to induce imiquimod-induced psoriasis. Thereafter, the imiquimod treatment was interrupted, and imeglimin (40 mg/kg) was orally administered on alternate days for 2 weeks (Day 8 to 22) (IMG). Mice without administration of imeglimin were designated IMQ. On Day 23, the imiquimod treatment was resumed, and 62.5 mg of 5% imiquimod cream (Beselna Cream 5%) was applied once daily a total of […]. In parallel, imeglimin (40 mg/kg) was orally administered daily to IMG.

mouse auricle [5] = experiment: Imiquimod-induced psoriasis model, oral imeglimin (Example 18); assay type: in vivo; details: 62.5 mg of 5% imiquimod cream daily, Days 1 to 7 (disease inducer)
Experimental: Experimental psoriatic symptoms were induced in a mouse auricle by imiquimod. Six-week-old male C57BL/6 mice (N=5) were acclimated for one week. On Days 1 to 7, 62.5 mg of 5% imiquimod cream (Beselna Cream 5%) (3.125 mg in terms of the active ingredient, manufactured by Mochida Pharmaceutical Co. Ltd.) was applied to the right auricle of the mice for 7 consecutive days (IMQ group). Once daily after the imiquimod application, the imeglimin administration group (IMQ+IMG group) received oral administration, at 40 mg/kg, of 500-mg Twymeeg (trademark) tablets (manufactured by Sumitomo Pharma Co. Ltd.) dissolved in physiological saline. The control group received an equal volume of physiological saline. On Day 8, the mice were euthanized by cervical dislocation, and auricle thickness was measured using a dial thickness gauge (manufactured by Adachi Sogyo Co., Ltd.).
Each excised mouse auricle was fixed in 4% paraformaldehyde at 4° C. overnight. After ethanol substitution, the auricle was embedded in paraffin, sectioned using a rotary microtome Leica RM2165 (thickness, […]), and subjected to HE staining or immunohistochemical staining. For the immunohistochemical staining, the sections were deparaffinized, washed in xylene, and rehydrated through graded alcohols. The sections were incubated in DAKO at 95° C. for 30 minutes. The sections were blocked at room temperature for 60 minutes and then incubated at room temperature for 2 hours to allow reaction with a TGM1 anti-rabbit polyclonal antibody (catalog number 12912-3-AP, manufactured by Proteintech). The sample was washed and then allowed to react with a secondary antibody (Alexa 544-conjugated secondary antibody (goat anti-rabbit IgG) (manufactured by Molecular Probes)) at room temperature for 60 minutes. After allowing reaction with DAPI at room temperature for 10 minutes, the sections were mounted with Fluoromount and imaged using a fluorescence microscope (BZ-X710, manufactured by Keyence).

keratinocytes = experiment: Imiquimod-induced ATP secretion in keratinocytes; assay type: cell-based, human; details: imiquimod 1 μg/ml or 0.5 μg/ml, 15 minutes, N=8 (FIG. 32)
Experimental: In the same manner as in Example 1, keratinocytes were cultured at 2.5×10^4 cells/well in a 24-well plate at 37° C. in 5% CO2 for 4 days. The medium was replaced with HBSS (manufactured by Gibco) supplemented with 1 μM or 10 μM imeglimin, and incubation was performed at 37° C. in 5% CO2 for 18 hours. Thereafter, imiquimod was added thereto at 1 μg/ml or 0.5 μg/ml, and incubation was performed for 15 minutes, followed by collection of 200 μl of the supernatant. The supernatant was immediately treated on a heat block at 95° C. for 10 minutes, and ATP in the supernatant was quantified using a ATP Assay Kit—Luminescence (manufactured by Dojindo) (N=8).

[6] = test system: catecholamine transport of chromaffin granule membranes; experiment: Catecholamine (dopamine) transport in chromaffin granule membranes; assay type: biochemical, cattle; details: role: inhibitor; 1 μM reserpine
Experimental: as §1
A catecholamine transport inhibition experiment was carried out in the same manner as the ATP transport experiment except that the experiment used a measurement liquid containing 20 mM MOPS-tris (pH 7.0), 0.1 M sucrose, 0.1 M potassium chloride, 5 mM magnesium acetate, and about 5 μg of chromaffin granule membranes. To 0.5 ml of the measurement liquid, 2 mM ATP was added, and the resulting mixture was incubated at 30° C. for about 5 minutes, followed by addition of 3[H]-dopamine thereto to a final concentration of 10 μM. After further incubation at 30° C. for 15 minutes, 0.2 ml of the reaction liquid was subjected to suction filtration through a Millipore MCE membrane filter with a pore size of 0.45 μm, and the radioactivity on the filter was measured (N=3). The substrate, 3[H]-dopamine, was prepared by mixing 3,4-[RING-2,5,6-^3H]dihydroxyphenylethylamine (dopamine) (30 Ci/mmol) (manufactured by New England Nuclear) with dopamine hydrochloride (manufactured by LKT Laboratories) such that a final concentration of […] was achieved during the use.
as §2

T1 sequence (P31404 whole entry, looked up): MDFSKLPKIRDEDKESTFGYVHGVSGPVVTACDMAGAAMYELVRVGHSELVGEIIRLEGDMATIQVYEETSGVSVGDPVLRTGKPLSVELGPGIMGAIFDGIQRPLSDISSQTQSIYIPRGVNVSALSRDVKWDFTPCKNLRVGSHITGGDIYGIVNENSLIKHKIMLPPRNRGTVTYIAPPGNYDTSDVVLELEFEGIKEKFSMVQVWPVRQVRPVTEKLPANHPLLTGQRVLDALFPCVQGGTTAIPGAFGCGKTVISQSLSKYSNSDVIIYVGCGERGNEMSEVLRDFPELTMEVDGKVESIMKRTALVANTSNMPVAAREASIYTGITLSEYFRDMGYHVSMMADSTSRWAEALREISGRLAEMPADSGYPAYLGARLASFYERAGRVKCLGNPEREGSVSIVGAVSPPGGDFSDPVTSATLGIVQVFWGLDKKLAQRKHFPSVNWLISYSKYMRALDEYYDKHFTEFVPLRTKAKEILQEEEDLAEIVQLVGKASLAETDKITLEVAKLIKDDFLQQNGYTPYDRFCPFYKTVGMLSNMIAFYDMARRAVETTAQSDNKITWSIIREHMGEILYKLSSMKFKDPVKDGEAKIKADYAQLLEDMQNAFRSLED
T1 sequence (P31408 whole entry, looked up): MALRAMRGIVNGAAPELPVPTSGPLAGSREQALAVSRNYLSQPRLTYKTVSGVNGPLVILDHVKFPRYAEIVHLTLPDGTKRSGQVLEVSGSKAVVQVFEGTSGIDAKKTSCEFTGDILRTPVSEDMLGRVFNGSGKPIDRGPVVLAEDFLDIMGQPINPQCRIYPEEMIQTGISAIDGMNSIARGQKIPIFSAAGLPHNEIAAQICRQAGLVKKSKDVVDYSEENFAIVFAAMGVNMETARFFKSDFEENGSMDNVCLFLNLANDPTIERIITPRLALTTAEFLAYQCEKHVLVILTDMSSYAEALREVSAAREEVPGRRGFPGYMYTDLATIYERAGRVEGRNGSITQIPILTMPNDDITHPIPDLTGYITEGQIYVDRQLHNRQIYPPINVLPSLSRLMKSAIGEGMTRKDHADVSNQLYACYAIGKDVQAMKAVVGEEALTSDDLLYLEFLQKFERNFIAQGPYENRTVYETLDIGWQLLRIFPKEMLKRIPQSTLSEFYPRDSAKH

Structure (SMILES): Nc1ncnc2c1ncn2[C@@H]1O[C@H](COP(=O)(O)OP(=O)(O)OP(=O)(O)O)[C@@H](O)[C@H]1O [ATP, adenosine triphosphate]
quenching of acridine orange fluorescence (V-ATPase [1]): 62%
quenching of oxonol-V fluorescence (V-ATPase [2]): 40%

Structure (SMILES): CC(=N)S [TAA, Thioacetamide]
α-SMA-positive reaction throughout the mouse liver ([3]; TAA 50 mg/kg i.p. (FIG. 29)): increased markedly
α-SMA-positive area fraction ([3]; TAA group (disease inducer, 50 mg/kg i.p.), four measurements, normal control 0.14±0.01): 2.79±0.33
reaction of F4/80-positive macrophages (mouse liver; 9 weeks (disease inducer)): markedly increased
α-SMA-positive reaction (mouse liver; 9 weeks (disease inducer)): markedly increased
HE-stained liver tissue (mouse liver; 9 weeks, vs normal control): destruction of the lobular structure, hepatocyte ballooning, and inflammatory cell infiltration
fibrosis score (mouse liver; 9 weeks, vs normal control (FIG. 28)): markedly increased

auricle thickening (mouse auricle [5]): auricle thickening induced
Structure (SMILES): CC(C)Cn1cnc2c(N)nc3ccccc3c21 [imiquimod]
psoriatic symptoms on resumed treatment (mouse auricle [4]): induced more rapidly and more strongly than at the first induction
psoriatic symptoms in the epidermis (mouse auricle [5]): caused psoriatic symptoms in the epidermis, leading to partial desquamation
ATP secretion from the keratinocytes (keratinocytes): markedly promoted

Structure (SMILES): COC(=O)[C@H]1[C@H]2C[C@@H]3c4[nH]c5cc(OC)ccc5c4CCN3C[C@H]2C[C@@H](OC(=O)c2cc(OC)c(OC)c(OC)c2)[C@@H]1OC [reserpine]
ATP-dependent dopamine transport [6]: almost completely blocked
